This test has as its target T1, human IGF-IR (Homo sapiens, UniProt P08069).
T1 construct: complete human IGF-IR cDNA: GenBank Acc; No. NM_000875; expressed in transfected cells; host or cells: NIH-3T3 mouse fibroblasts
Briefly: cellular "Capture ELISA": IGF-I induced IGF-IR autophosphorylation. The format is cell-based. Particulars: NIH-3T3 mouse fibroblasts transfected with human IGF-IR cDNA, 90 min compound, 10 ng/ml IGF-I for 10 min. As to the method: In this assay the activity of the compounds of the invention against Insulin-like growth factor I (IGF-I) induced autophosphorylation of the IGF-IGF-IR is determined. The assay is conducted as follows:
The cells which overexpress human IGF-IGF-IR are cultured in Dulbecco's minimal essential (DMEM) medium, containing 10% Fetal Calf Serum (FCS). […] On day 3 the medium is discarded and the cells are incubated for 24 h in minimal medium (DMEM, containing 0.5% FCS). […] The cells are incubated for 90 min in the presence of a compound of formula I. Thereafter the cells are stimulated with 50 μl IGF-I (final concentration of IGF-I in the well=10 ng/ml; IGF-I is obtained from Sigma; Product Code: I3769) and incubated for 10 min at 37° C.
The medium is discarded and the cells are washed twice with PBS/O (=Phosphate-Buffered Saline without CaCl2) and lysed for 15 min on ice with 50 μl/well RIPA-buffer [50 mM Tris.HCl, pH=7.2, 120 mM NaCl, 1 mM EDTA, 6 mM EGTA, 1% NP-40, 20 mM NaF, 1 mM benzamidine, 15 mM sodium pyrophosphate, 1 mM Phenyl methyl sulphonyl fluoride (PMSF) and 0.5 mM Na3VO4] and shaken for 10 min using a 96-well plate shaker (=cellular extracts).
The plates are washed twice with 0.05% (v/v) Tween-20 in Phosphate-Buffered Saline (PBS) and once with nanopure H2O. […] After blocking, the plates are washed once with nanopure H2O.
After incubating the extracts and the secondary antibody for 2 h at 4° C., the extracts are discarded, the plates are washed twice with 0.05% (v/v) Tween-20 in PBS and once with nanopure water.
90 μl/well AP substrate (CDP-Star; obtained from Tropix; Cat. No.: MS100RY) are then added and the plates are incubated for 45 min at RT in the dark, followed by measuring AP activity in a Packard Top Count Microplate Scintillation Counter. The IC50 values for the compounds of formula I are calculated via linear regression analysis using the GraphPad In-stat program (GraphPad Software, USA).
Test for activity against IGF-I induced IGF-IR autophosphorylation using the cellular “Capture ELISA” test
The cellular “Capture ELISA” test is carried out as described above.
T1 sequence (P08069 31-1367): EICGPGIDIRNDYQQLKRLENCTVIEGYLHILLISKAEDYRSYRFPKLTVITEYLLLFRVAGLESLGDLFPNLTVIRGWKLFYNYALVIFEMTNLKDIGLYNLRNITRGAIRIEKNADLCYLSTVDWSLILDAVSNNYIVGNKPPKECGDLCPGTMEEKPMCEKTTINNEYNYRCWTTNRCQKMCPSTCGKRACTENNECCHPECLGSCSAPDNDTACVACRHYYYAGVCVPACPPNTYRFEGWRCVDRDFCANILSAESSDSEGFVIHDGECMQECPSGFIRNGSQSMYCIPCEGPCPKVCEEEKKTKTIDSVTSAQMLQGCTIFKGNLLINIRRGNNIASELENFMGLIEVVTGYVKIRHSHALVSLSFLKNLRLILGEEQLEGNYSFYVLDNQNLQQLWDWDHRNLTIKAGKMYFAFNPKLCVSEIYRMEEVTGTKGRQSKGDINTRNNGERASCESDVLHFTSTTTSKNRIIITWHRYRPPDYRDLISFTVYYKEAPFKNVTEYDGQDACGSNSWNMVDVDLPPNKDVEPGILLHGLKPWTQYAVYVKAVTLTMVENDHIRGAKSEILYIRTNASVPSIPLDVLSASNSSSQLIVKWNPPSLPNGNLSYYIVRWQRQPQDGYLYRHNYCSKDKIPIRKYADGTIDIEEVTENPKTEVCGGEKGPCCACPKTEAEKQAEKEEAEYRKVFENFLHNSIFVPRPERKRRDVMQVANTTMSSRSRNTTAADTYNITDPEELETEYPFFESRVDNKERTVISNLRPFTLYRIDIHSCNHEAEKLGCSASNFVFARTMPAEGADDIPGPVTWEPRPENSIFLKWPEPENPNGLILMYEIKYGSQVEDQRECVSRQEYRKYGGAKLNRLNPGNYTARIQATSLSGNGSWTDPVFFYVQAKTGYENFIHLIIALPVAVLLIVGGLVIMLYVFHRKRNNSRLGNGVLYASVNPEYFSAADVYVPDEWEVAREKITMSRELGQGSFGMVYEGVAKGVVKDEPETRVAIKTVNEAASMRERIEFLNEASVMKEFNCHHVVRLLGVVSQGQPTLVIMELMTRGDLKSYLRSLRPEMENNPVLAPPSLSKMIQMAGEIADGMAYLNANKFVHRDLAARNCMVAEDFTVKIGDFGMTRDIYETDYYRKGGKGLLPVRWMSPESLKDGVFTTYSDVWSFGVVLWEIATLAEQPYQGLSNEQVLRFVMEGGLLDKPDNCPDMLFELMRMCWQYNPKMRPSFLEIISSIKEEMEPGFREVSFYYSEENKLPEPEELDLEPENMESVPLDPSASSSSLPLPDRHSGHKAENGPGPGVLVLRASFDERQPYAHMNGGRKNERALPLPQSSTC
Compound `NC(=O)[C@@H]1CCCN1C[C@H]1C[C@H](n2cc(-c3cccc(OCc4ccccc4)c3)c3c(N)ncnc32)C1` [Example 75, trans-(S)1-{3-[4-Amino-5-(3-benzyloxy-phenyl)-pyrrolo[2,3-d]pyrimidin-7-yl]-cyclobutylmethyl}-pyrrolidine-2-carboxylic acid amide] registered an IC50 of 50 nM. `Cc1c(-c2cccc(OCc3ccccc3)c2)c2c(N)ncnc2n1[C@H]1C[C@H](CN2CCC[C@@H]2CO)C1` [Example 112, trans-((R)-1-{3-[4-Amino-5-(3-benzyloxy-phenyl)-6-methyl-pyrrolo[2,3-d]pyrimidin-7-yl]-cyclobutylmethyl}-pyrrolidin-2-yl)-methanol] registered an IC50 of 90 nM. The result for `Nc1ncnc2c1c(-c1cccc(OCc3ccccc3)c1)cn2[C@H]1C[C@H](CNC(=O)N2CCCCC2)C1` [Example 90, trans-Piperidine-1-carboxylic acid {3-[4-amino-5-(3-benzyloxy-phenyl)-pyrrolo[2,3-d]pyrimidin-7-yl]-cyclobutylmethyl}-amide] reads 90 nM. Compound `COCCOC(=O)NC[C@H]1C[C@H](n2cc(-c3cccc(OCc4ccccc4)c3)c3c(N)ncnc32)C1` [Example 24, trans-{3-[4-Amino-5-(3-benzyloxy-phenyl)-pyrrolo[2,3-d]pyrimidin-7-yl]-cyclobutylmethyl}-carbamic acid 2-methoxy-ethyl ester] yielded an IC50 of 95 nM.

Take `CCNC(=O)NC[C@H]1C[C@H](n2cc(-c3cccc(OCc4ccccc4)c3)c3c(N)ncnc32)C1` [Example 26, trans-1-{3-[4-amino-5-(3-benzyloxy-phenyl)-pyrrolo[2,3-d]pyrimidin-7-yl]-cyclobutylmethyl}-3-ethyl-urea]: the IC50 was 55 nM. With `Nc1ncnc2c1c(-c1cccc(OCc3ccccc3)c1)cn2[C@H]1C[C@@H](CNC(=O)CN2CCCCC2)C1` [Example 57, cis-N-{3-[4-Amino-5-(3-benzyloxy-phenyl)-pyrrolo[2,3-d]pyrimidin-7-yl]-cyclobutylmethyl}-2-piperidin-1-yl-acetamide], half-maximal inhibition (IC50) was put at 18 nM. Turning to `Cc1c(-c2cccc(OCc3ccccc3)c2)c2c(N)ncnc2n1[C@H]1C[C@H](CN2CCC(O)CC2)C1` [Example 109, trans-1-{3-[4-Amino-5-(3-benzyloxy-phenyl)-6-methyl-pyrrolo[2,3-d]pyrimidin-7-yl]-cyclobutylmethyl}-piperidin-4-ol], the IC50 is 150 nM.

For the compound `CNC[C@H]1C[C@H](n2cc(-c3cccc(OCc4ccccc4)c3)c3c(N)ncnc32)C1` [Example 10, trans-5-(3-Benzyloxy-phenyl)-7-(3-methylaminomethyl-cyclobutyl)-7H-pyrrolo[2,3-d]pyrimidin-4-ylamine], the IC50 came out at 70 nM. The compound `NC(=O)[C@H]1CCCN1C[C@H]1C[C@@H](n2cc(-c3cccc(OCc4ccccc4)c3)c3c(N)ncnc32)C1` [Example 83, cis-(R)-1-{3-[4-Amino-5-(3-benzyloxy-phenyl)-pyrrolo[2,3-d]pyrimidin-7-yl]-cyclobutylmethyl}-pyrrolidine-2-carboxylic acid amide] came in with an IC50 of 52 nM. With `Cc1c(-c2cccc(OCc3ccccc3)c2)c2c(N)ncnc2n1[C@H]1C[C@H](CN2CCC2)C1` [Example 110, trans-7-(3-Azetidin-1-ylmethyl-cyclobutyl)-5-(3-benzyloxy-phenyl)-6-methyl-7-H-pyrrolo[2,3-d]pyrimidin-4-ylamine] the figure was 140 nM; with `COC(=O)NC[C@H]1C[C@@H](n2cc(-c3cccc(OCc4ccccc4)c3)c3c(N)ncnc32)C1` [Example 23, cis-{3-[4-Amino-5-(3-benzyloxy-phenyl)-pyrrolo[2,3-d]pyrimidin-7-yl]-cyclobutylmethyl}-carbamic acid methyl ester], 31 nM. With `NC[C@H]1C[C@H](n2cc(-c3cccc(OCc4ccccc4)c3)c3c(N)ncnc32)C1` [Example 2, trans-7-(3-aminomethyl-cyclobutyl)-5-(3-benzyloxy-phenyl)-7H-pyrrolo[2,3-d]pyrimidin-4-ylamine] the figure was 30 nM; with `CCNC(=O)NC[C@H]1C[C@@H](n2cc(-c3cccc(OCc4ccccc4)c3)c3c(N)ncnc32)C1` [Example 27, cis-{3-[4-Amino-5-(3-benzyloxy-phenyl)pyrrolo[2,3-d]pyrimidin-7-yl]-cyclobutylmethyl}-3-ethyl-urea], 50 nM; with `CC(C)NC(=O)NC[C@H]1C[C@@H](n2cc(-c3cccc(OCc4ccccc4)c3)c3c(N)ncnc32)C1` [Example 31, cis-1-{3-[4-Amino-5-(3-benzyloxy-phenyl)-pyrrolo[2,3-d]pyrimidin-7-yl]-cyclobutylmethyl}-3-isopropyl-urea], 30 nM. As for `NC[C@H]1C[C@@H](n2cc(-c3cccc(OCc4ccccc4)c3)c3c(N)ncnc32)C1` [Example 1, cis-7-(3-aminomethyl-cyclobutyl)-5-(3-benzyloxy-phenyl)-7H-pyrrolo[2,3-d]pyrimidin-4-ylamine], the IC50 came out at 62 nM. The result for `Nc1ncnc2c1c(-c1cccc(OCc3ccccc3)c1)cn2[C@H]1C[C@@H](CN2CCSCC2)C1` [Example 81, cis-5-(3-Benzyloxy-phenyl)-7-(3-thiomorpholin-4-ylmethyl-cyclobutyl)-7H-pyrrolo[2,3-d]pyrimidin-4-ylamine] reads 80 nM; that for `NC(=O)NC[C@H]1C[C@@H](n2cc(-c3cccc(OCc4ccccc4)c3)c3c(N)ncnc32)C1` [Example 49, cis-{3-[4-Amino-5-(3-benzyloxy-phenyl)-pyrrolo[2,3-d]pyrimidin-7-yl]-cyclobutylmethyl}-urea], 40 nM; that for `CS(=O)(=O)NC[C@H]1C[C@@H](n2cc(-c3cccc(OCc4ccccc4)c3)c3c(N)ncnc32)C1` [Example 14, cis-N-{3-[4-Amino-5-(3-benzyloxy-phenyl)-pyrrolo[2,3-d]pyrimidin-7-yl]-cyclobutylmethyl}-methanesulfonamide], 30 nM.

Compound `CCN(CC)CCOC(=O)NC[C@H]1C[C@H](n2cc(-c3cccc(OCc4ccccc4)c3)c3c(N)ncnc32)C1` [Example 95, trans-{3-[4-amino-5-(3-benzyloxy-phenyl)pyrrolo[2,3-d]pyrimidin-7-yl]-cyclobutylmethyl}-carbamic acid 2-diethylamino-ethyl ester] gave an IC50 of 80 nM.

The compound `CN(C)CCOC(=O)NC[C@H]1C[C@H](n2cc(-c3cccc(OCc4ccccc4)c3)c3c(N)ncnc32)C1` [Example 98, trans-{3-[4-Amino-5-(3-benzyloxy-phenyl)-pyrrolo[2,3-d]pyrimidin-7-yl]-cyclobutylmethyl}-carbamic acid 2-dimethylamino-ethyl ester] showed an IC50 of 40 nM. Turning to `Nc1ncnc2c1c(-c1cccc(OCc3ccccc3)c1)cn2[C@H]1C[C@@H](CN2CCC(O)CC2)C1` [Example 77, cis-1-{3-[4-Amino-5-(3-benzyloxy-phenyl)-pyrrolo[2,3-d]pyrimidin-7-yl]-cyclobutylmethyl}-piperidin-4-ol], the IC50 was found to be 50 nM. This IC50 and that of the compound before are within 1.5-fold of each other. Turning to `COC(=O)NC[C@H]1C[C@H](n2cc(-c3cccc(OCc4ccccc4)c3)c3c(N)ncnc32)C1` [Example 22, trans-{3-[4-amino-5-(3-benzyloxy-phenyl)-pyrrolo[2,3-d]pyrimidin-7-yl]-cyclobutylmethyl}-carbamic acid methyl ester], the IC50 turned out to be 80 nM. `CNC(=O)NC[C@H]1C[C@@H](n2cc(-c3cccc(OCc4ccccc4)c3)c3c(N)ncnc32)C1` [Example 88, cis-1-{3-[4-Amino-5-(3-benzyloxy-phenyl)-pyrrolo[2,3-d]pyrimidin-7-yl]-cyclobutylmethyl}-3-methyl-urea] had an IC50 of 57 nM. On to `Cc1c(-c2cccc(OCc3ccccc3)c2)c2c(N)ncnc2n1[C@H]1C[C@@H](CN2CCN(C)CC2)C1` [Example 117, cis-5-(3-Benzyloxy-phenyl)-6-methyl-7-[3-(4-methyl-piperazin-1-ylmethyl)-cyclobutyl]-7H-pyrrolo[2,3-d]pyrimidin-4-ylamine], for which half-maximal inhibition (IC50) was put at 130 nM. The result for `CNC[C@H]1C[C@@H](n2cc(-c3cccc(OCc4ccccc4)c3)c3c(N)ncnc32)C1` [Example 9, cis-5-(3-Benzyloxy-phenyl)-7-(3-methylaminomethyl-cyclobutyl)-7H-pyrrolo[2,3-d]pyrimidin-4-ylamine] reads 42 nM; that for `Nc1ncnc2c1c(-c1cccc(OCc3ccccc3)c1)cn2[C@H]1C[C@H](CNC(=O)OCCN2CCOCC2)C1` [Example 96, trans-{3-[4-Amino-5-(3-benzyloxy-phenyl)-pyrrolo[2,3-d]pyrimidin-7-yl]-cyclobutylmethyl}-carbamic acid 2-morpholin-4-yl-ethyl ester], 50 nM.
